Data reported in article PMC4076210, “Discovery of Novel AKT Inhibitors with Enhanced Anti-Tumor Effects in Combination with the MEK Inhibitor” (PLoS ONE, 2014).

Tested on: solid tumor cell lines
Test: 3-day proliferation assay (CellTiter-Glo)
Format: cell-based, human
Conditions: Homo sapiens
Method: Various tumor cell lines were obtained from different sources including; the American Type Cell Culture Collection, the Developmental Therapeutics Program, the National Cancer Institute, the German Resource Center for Biological Material and the European Collection of Animal Cell Cultures. Cell lines were typically grown in […] containing 10% FBS. Some cell lines were grown in media specified by the vendor. A 3-day proliferation assay using CellTiter-Glo (CTG, Promega) was performed to measure the growth inhibition by the compounds at 0–30 µM. Cell growth was determined relative to untreated (DMSO) controls. EC50's were calculated from inhibition curves using a 4- or 6-parameter fitting algorithm in the Assay Client application.

**Q.** With `Cn1ncc(Cl)c1-c1cc(C(=O)N[C@H](CN)Cc2ccc(F)c(F)c2)oc1Cl` [GSK2141795] as the molecule, how does the IC50 (NCI-H226, NCIH226, Lung) read?
**A.** The IC50 was 2.75 µM.

**Q.** And the IC50 (NCI-H292, NCIH292, Lung)?
**A.** The IC50 was 2.87 µM.

**Q.** What about the IC50 (NCI-H322, NCIH322, Lung) of the same molecule?
**A.** Its IC50 is 4.71 µM.

**Q.** What about the IC50 (NCI-H358, NCI-H358, Lung) of the same molecule?
**A.** Its IC50 is 0.635 µM.

**Q.** And the IC50 (NCI-H446, NCIH446, Lung)?
**A.** The IC50 was 0.256 µM.

**Q.** What about the IC50 (NCI-H460, NCIH460, Lung) of the same molecule?
**A.** Its IC50 is 1.94 µM.

**Q.** And the IC50 (NCI-H508, NCIH508, Lung)?
**A.** Its IC50 is 0.159 µM.

**Q.** What about the IC50 (NCI-H520, NCIH520, Lung) of the same molecule?
**A.** Its IC50 is 0.2 µM.

**Q.** And the IC50 (NCI-H630, NCIH630, Lung)?
**A.** The IC50 was 3.08 µM.

**Q.** What about the IC50 (NCI-H661, NCIH661, Lung) of the same molecule?
**A.** The IC50 was 3.3 µM.

**Q.** What about the IC50 (NCI-H716, NCIH716, Colon) of the same molecule?
**A.** Its IC50 is 1.64 µM.

**Q.** And the IC50 (NCI-H747, NCIH747, Lung)?
**A.** Its IC50 is 0.474 µM.

**Q.** What about the IC50 (NCI-H1563, NCIH1563, Lung) of the same molecule?
**A.** Its IC50 is 0.14 µM.

**Q.** What about the IC50 (NCI-H1792, NCIH1792, Lung) of the same molecule?
**A.** The IC50 was 2.84 µM.

**Q.** And the IC50 (NCI-H2030, NCIH2030, Lung)?
**A.** Its IC50 is 3.16 µM.

**Q.** And the IC50 (NCI-H2052, NCIH2052, Lung)?
**A.** The IC50 was 1.59 µM.

**Q.** And the IC50 (NCI-H2081, NCIH2081, Lung)?
**A.** Its IC50 is 0.507 µM.

**Q.** What about the IC50 (NCI-H2122, NCIH2122, Lung) of the same molecule?
**A.** The IC50 was 1.91 µM.

**Q.** What about the IC50 (NCI-H2170, NCI-H2170, Lung) of the same molecule?
**A.** Its IC50 is 3.19 µM.

**Q.** What about the IC50 (NCI-H2228, NCIH2228, Lung) of the same molecule?
**A.** Its IC50 is 0.409 µM.

**Q.** And the IC50 (NCI-N87, NCIN87, Stomach)?
**A.** The IC50 was 0.568 µM.

**Q.** What about the IC50 (NCI/ADR-RES, NCIADRRES, Breast) of the same molecule?
**A.** The IC50 was 8.01 µM.

**Q.** What about the IC50 (OE19, OE19, Oesophagus) of the same molecule?
**A.** Its IC50 is 2.28 µM.

**Q.** And the IC50 (OE21, OE21, Oesophagus)?
**A.** Its IC50 is 0.111 µM.

**Q.** What about the IC50 (OE33, OE33, Oesophagus) of the same molecule?
**A.** The IC50 was 4.28 µM.

**Q.** What about the IC50 (OV-90, OV90, Ovary) of the same molecule?
**A.** The IC50 was 2.08 µM.

**Q.** What about the IC50 (OVCAR-3, OVCAR3, Ovary) of the same molecule?
**A.** The IC50 was 3.15 µM.

**Q.** What about the IC50 (OVCAR-4, OVCAR4, Ovary) of the same molecule?
**A.** Its IC50 is 29.3 µM.

**Q.** And the IC50 (OVCAR-5, OVCAR5, Ovary)?
**A.** The IC50 was 5.27 µM.

**Q.** And the IC50 (PANC-1, Panc1, Pancreas)?
**A.** The IC50 was 2.22 µM.

**Q.** And the IC50 (PC3, Prostate)?
**A.** Its IC50 is 1.39 µM.

**Q.** And the IC50 (PL45, PL45, Pancreas)?
**A.** The IC50 was 6.1 µM.

**Q.** And the IC50 (Panc 02.03, Panc02.03, Pancreas)?
**A.** The IC50 was 10.7 µM.

**Q.** And the IC50 (RD, Sarcoma)?
**A.** Its IC50 is 6.29 µM.

**Q.** And the IC50 (RD-ES, RDES, Sarcoma)?
**A.** The IC50 was 0.808 µM.

**Q.** What about the IC50 (RKO, Colon) of the same molecule?
**A.** The IC50 was 0.676 µM.

**Q.** And the IC50 (SAOS-2, SAOS2, Sarcoma)?
**A.** The IC50 was 2.37 µM.

**Q.** What about the IC50 (SCC12, SCC12, Head & Neck) of the same molecule?
**A.** Its IC50 is 1.29 µM.

**Q.** And the IC50 (SCC-9, SCC9, Head & Neck)?
**A.** The IC50 was 2.39 µM.

**Q.** What about the IC50 (SCC-13, SCC-13, Head & Neck) of the same molecule?
**A.** The IC50 was 23.7 µM.

**Q.** What about the IC50 (SCC-15, SCC15, Head & Neck) of the same molecule?
**A.** The IC50 was 1.98 µM.

**Q.** What about the IC50 (SCC-25, SCC-25, Head & Neck) of the same molecule?
**A.** The IC50 was 2.48 µM.

**Q.** What about the IC50 (SCLC3, Lung) of the same molecule?
**A.** The IC50 was 0.054 µM.

**Q.** What about the IC50 (SF-295, SF295, Brain) of the same molecule?
**A.** Its IC50 is 0.373 µM.

**Q.** And the IC50 (SF-539, SF539, Brain)?
**A.** Its IC50 is 0.388 µM.

**Q.** And the IC50 (SH4, Skin)?
**A.** The IC50 was 5.53 µM.

**Q.** And the IC50 (SHP77, SHP77, Lung)?
**A.** The IC50 was 3.1 µM.

**Q.** And the IC50 (SJRH30, SJRH30, Sarcoma)?
**A.** Its IC50 is 0.284 µM.

**Q.** And the IC50 (SK-BR-3, SKBR3, Breast)?
**A.** Its IC50 is 0.096 µM.

**Q.** And the IC50 (SK-LMS-1, SKLMS1, Sarcoma)?
**A.** Its IC50 is 5.87 µM.

**Q.** What about the IC50 (SK-MEL-1, SKMEL1, Skin) of the same molecule?
**A.** Its IC50 is 2.5 µM.

**Q.** What about the IC50 (SK-MEL-28, SKMEL28, Skin) of the same molecule?
**A.** The IC50 was 1.61 µM.

**Q.** What about the IC50 (SK-MES-1, SKMES-1, Lung) of the same molecule?
**A.** Its IC50 is 2.19 µM.

**Q.** What about the IC50 (SK-N-AS, SKNAS, Neuroblastoma) of the same molecule?
**A.** Its IC50 is 3.4 µM.

**Q.** What about the IC50 (SK-OV-3, SKOV3, Ovary) of the same molecule?
**A.** Its IC50 is 0.435 µM.

**Q.** And the IC50 (SK-UT-1, SKUT1, Sarcoma)?
**A.** Its IC50 is 0.202 µM.

**Q.** What about the IC50 (SKNF1, Neuroblastoma) of the same molecule?
**A.** The IC50 was 0.239 µM.

**Q.** What about the IC50 (SN12C, Kidney) of the same molecule?
**A.** The IC50 was 11.3 µM.

**Q.** And the IC50 (SNB-75, SNB75, Brain)?
**A.** Its IC50 is 0.449 µM.

**Q.** What about the IC50 (SNU1, SNU1, Stomach) of the same molecule?
**A.** Its IC50 is 1.42 µM.

**Q.** And the IC50 (SNU-5, SNU5, Stomach)?
**A.** The IC50 was 7.81 µM.

**Q.** And the IC50 (SNU-16, SNU16, Stomach)?
**A.** Its IC50 is 7.21 µM.

**Q.** And the IC50 (SNU-398, SNU398, Liver)?
**A.** The IC50 was 13.5 µM.

**Q.** And the IC50 (SNU-449, SNU449, Liver)?
**A.** The IC50 was 6.05 µM.

**Q.** And the IC50 (SW48, SW48, Colon)?
**A.** The IC50 was 0.328 µM.

**Q.** What about the IC50 (SW480, SW480, Colon) of the same molecule?
**A.** Its IC50 is 10.3 µM.

**Q.** And the IC50 (SW579, SW579, Thyroid)?
**A.** The IC50 was 0.957 µM.

**Q.** And the IC50 (SW684, SW684, Sarcoma)?
**A.** The IC50 was 0.336 µM.

**Q.** What about the IC50 (SW756, SW756, Cervix) of the same molecule?
**A.** The IC50 was 8.29 µM.

**Q.** And the IC50 (SW780, SW780, Bladder)?
**A.** The IC50 was 4.96 µM.

**Q.** And the IC50 (SW872, SW872, Sarcoma)?
**A.** The IC50 was 0.289 µM.

**Q.** And the IC50 (SW900, SW900, Lung)?
**A.** The IC50 was 8.22 µM.

**Q.** And the IC50 (SW1088, SW1088, Brain)?
**A.** Its IC50 is 0.532 µM.

**Q.** And the IC50 (SW1417, SW1417, Colon)?
**A.** Its IC50 is 1.36 µM.

**Q.** What about the IC50 (SW1783, SW1783, Brain) of the same molecule?
**A.** Its IC50 is 0.182 µM.

**Q.** And the IC50 (SW1990, SW1990, Pancreas)?
**A.** Its IC50 is 9.15 µM.

**Q.** And the IC50 (Skut1B, Sarcoma)?
**A.** The IC50 was 0.01 µM.

**Q.** What about the IC50 (T47D, T-47D, Breast) of the same molecule?
**A.** The IC50 was 0.063 µM.

**Q.** And the IC50 (T84, Colon)?
**A.** The IC50 was 2.24 µM.

**Q.** And the IC50 (TE 381.T, TE381T, Sarcoma)?
**A.** Its IC50 is 0.834 µM.

**Q.** And the IC50 (TK-10, TK10, Kidney)?
**A.** The IC50 was 3.33 µM.

**Q.** What about the IC50 (U20S, Sarcoma) of the same molecule?
**A.** Its IC50 is 23.2 µM.

**Q.** And the IC50 (U138-MG, U138MG, Brain)?
**A.** The IC50 was 1.16 µM.

**Q.** And the IC50 (U-87 MG, U87MG, Brain)?
**A.** Its IC50 is 3.31 µM.

**Q.** What about the IC50 (U-251, U251, Brain) of the same molecule?
**A.** The IC50 was 1.23 µM.

**Q.** And the IC50 (UACC-62, UACC62, Skin)?
**A.** The IC50 was 1.23 µM.

**Q.** What about the IC50 (UACC-257, UACC257, Skin) of the same molecule?
**A.** The IC50 was 2.99 µM.

**Q.** What about the IC50 (UMUC3, UMUC3, Bladder) of the same molecule?
**A.** Its IC50 is 5.83 µM.

**Q.** What about the IC50 (YAPC, Pancreas) of the same molecule?
**A.** The IC50 was 10.3 µM.

**Q.** And the IC50 (ZR-75-1, ZR75-1, Breast)?
**A.** Its IC50 is 0.033 µM.
